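48-hour exposure; five concentrations; linearly interpolated endpoints. At the GI50, growth is halved. TGI denotes the concentration required for complete inhibition of growth.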
Assays:
Assay in all cases: growth of human tumour cells (NCI), 48 h
[1] = tested on: MCF7 breast
[2] = tested on: NCI-H522 lung
[3] = tested on: T-47D breast
[4] = tested on: UO-31 renal
[5] = tested on: NCI-H23 lung
[6] = tested on: MDA-MB-435
[7] = tested on: SF-268 CNS
[8] = tested on: M14 melanoma
[9] = tested on: SF-539 CNS
[10] = tested on: IGROV1 ovarian
[11] = tested on: DU-145 prostate
[12] = tested on: UACC-62 melanoma
[13] = tested on: HL-60(TB) leukemia
[14] = tested on: MOLT-4 leukemia
[15] = tested on: SR leukemia
[16] = tested on: SK-OV-3 ovarian
[17] = tested on: U251 CNS
[18] = tested on: SK-MEL-2 melanoma
[19] = tested on: HCT-15 colon
[20] = tested on: RPMI-8226 leukemia
[21] = tested on: CAKI-1 renal
[22] = tested on: HOP-62 NSCLC
[23] = tested on: SK-MEL-5 melanoma
[24] = tested on: LOX IMVI melanoma
[25] = tested on: OVCAR-4 ovarian
[26] = tested on: HOP-92 NSCLC
[27] = tested on: HT29 colon
[28] = tested on: MALME-3M melanoma
[29] = tested on: HCT-116 colon
[30] = tested on: SK-MEL-28 melanoma
[31] = tested on: HS 578T breast
[32] = tested on: SN12C renal
[33] = tested on: UACC-257 melanoma
[34] = tested on: KM12 colon
[35] = tested on: SW-620 colon
[36] = tested on: EKVX NSCLC
[37] = tested on: CCRF-CEM leukemia
[38] = tested on: PC-3 prostate
[39] = tested on: A549 NSCLC
[40] = tested on: ACHN renal
[41] = tested on: COLO 205 colon
[42] = tested on: NCI-H460 lung
[43] = tested on: OVCAR-3 ovarian
[44] = tested on: SNB-75 CNS
[45] = tested on: BT-549 breast
[46] = tested on: A498 renal
[47] = tested on: OVCAR-8 ovarian
[48] = tested on: MDA-MB-231 breast
[49] = tested on: MDA-MB-468 breast
[50] = tested on: OVCAR-5 ovarian
[51] = tested on: SF-295 CNS
[52] = tested on: NCI-H226 lung
[53] = tested on: HCC-2998 colon
[54] = tested on: K-562 leukemia
[55] = tested on: RXF 393 renal
[56] = tested on: TK-10 renal
[57] = tested on: NCI/ADR-RES ovarian
[58] = tested on: 786-0 renal
[59] = tested on: SNB-19 CNS

O=C(COc1ccc(NC(=O)Nc2ccc(Cl)c(Cl)c2)cc1)N=Nc1c(O)[nH]c2ccc(Cl)cc12
GI50 [1]: 2.08 µM
TGI [1]: 5 µM
GI50 [2]: 1.74 µM
TGI [2]: 3.57 µM
GI50 [3]: 2.01 µM
TGI [3]: 4.76 µM
GI50 [4]: 22.5 µM
TGI [4]: > 100 µM
GI50 [5]: 2.08 µM
TGI [5]: 4.4 µM
GI50 [6]: 1.8 µM
TGI [6]: 3.68 µM
GI50 [7]: 2.23 µM
TGI [7]: 5.18 µM
GI50 [8]: 1.81 µM
TGI [8]: 3.71 µM
GI50 [9]: 1.78 µM
TGI [9]: 3.4 µM
GI50 [10]: 2.31 µM
TGI [10]: 5.73 µM
GI50 [11]: 2.96 µM
TGI [11]: 8.81 µM
GI50 [12]: 1.98 µM
TGI [12]: 4.45 µM
GI50 [13]: 2.05 µM
TGI [13]: 5.31 µM
GI50 [14]: 1.84 µM
TGI [14]: 4.5 µM
GI50 [15]: 2.18 µM
TGI [15]: 9.97 µM
GI50 [16]: 2.19 µM
TGI [16]: 4.98 µM
GI50 [17]: 1.9 µM
TGI [17]: 3.79 µM
GI50 [18]: 2.07 µM
TGI [18]: 4.83 µM
GI50 [19]: 7.94 µM
TGI [19]: > 100 µM
GI50 [20]: 2.44 µM
TGI [20]: 6.2 µM
GI50 [21]: 2.21 µM
TGI [21]: 4.89 µM
GI50 [22]: 1.78 µM
TGI [22]: 3.65 µM
GI50 [23]: 1.72 µM
TGI [23]: 3.18 µM
GI50 [24]: 1.73 µM
TGI [24]: 3.23 µM
GI50 [25]: 2.26 µM
TGI [25]: 6.15 µM
GI50 [26]: 2.18 µM
TGI [26]: 4.87 µM
GI50 [27]: 1.89 µM
TGI [27]: 3.58 µM
GI50 [28]: 1.68 µM
TGI [28]: 3.1 µM
GI50 [29]: 1.85 µM
TGI [29]: 3.47 µM
GI50 [30]: 1.89 µM
TGI [30]: 3.86 µM
GI50 [31]: 2.33 µM
TGI [31]: 6.36 µM
GI50 [32]: 1.93 µM
TGI [32]: 3.67 µM
GI50 [33]: 2 µM
TGI [33]: 4.15 µM
GI50 [34]: 1.98 µM
TGI [34]: 4.38 µM
GI50 [35]: 1.79 µM
TGI [35]: 3.59 µM
GI50 [36]: 2.65 µM
TGI [36]: 9.28 µM
GI50 [37]: 2.27 µM
TGI [37]: 5.54 µM
GI50 [38]: 2.1 µM
TGI [38]: 5.07 µM
GI50 [39]: 2.61 µM
TGI [39]: 7.01 µM
GI50 [40]: 3.23 µM
TGI [40]: 11.4 µM
GI50 [41]: 1.76 µM
TGI [41]: 3.35 µM
GI50 [42]: 1.92 µM
TGI [42]: 4.07 µM
GI50 [43]: 1.97 µM
TGI [43]: 4.1 µM
GI50 [44]: 1.58 µM
TGI [44]: 3.49 µM
GI50 [45]: 1.62 µM
TGI [45]: 3.3 µM
GI50 [46]: 2.06 µM
TGI [46]: 5.28 µM
GI50 [47]: 2.3 µM
TGI [47]: 5.36 µM
GI50 [48]: 1.93 µM
TGI [48]: 3.57 µM
GI50 [49]: 1.84 µM
TGI [49]: 3.54 µM
GI50 [50]: 2.11 µM
TGI [50]: 5.39 µM
GI50 [51]: 1.81 µM
TGI [51]: 3.54 µM
GI50 [52]: 2.06 µM
TGI [52]: 4.59 µM
GI50 [53]: 2.58 µM
TGI [53]: 7.1 µM
GI50 [54]: 2.77 µM
TGI [54]: 7.1 µM
GI50 [55]: 1.62 µM
TGI [55]: 3.13 µM
GI50 [56]: 2.86 µM
TGI [56]: 9.89 µM
GI50 [57]: > 100 µM
TGI [57]: > 100 µM
GI50 [58]: 1.78 µM
TGI [58]: 3.8 µM
GI50 [59]: 2.66 µM
TGI [59]: 7.49 µM

— PubChem BioAssay (NCI)
